# Experiment: Cytotoxicity assay (intracellular ATP levels) in Huh5-2 replicon cells
# Assay type: cell-based
# Details: human, Huh5-2 cells, read-out: HCV Replicon 1b CC50
# Protocol: All synthesized compounds were tested against HCV genotype 1b Con-1 subgenomic replicon in the Huh-5-2 stable cell line. Specifically, their activity against viral replication was estimated by measuring firefly luciferase, which is co-expressed by the bicistronic replicon, and their half-maximal effective concentrations (EC50) were determined. In parallel, the half-maximal cytotoxic concentrations (CC50) of the compounds were estimated, and their selective indexes (SI50: CC50/ EC50) were calculated. All novel synthesized compounds were active against HCV 1b with EC50 < 1 µM except for compound 4b (Table 3).
# Intracellular ATP levels were measured to determine the cytotoxicity of the compounds in the treated cells. In 96-well plates, 10^4 cells per well were seeded, incubated with serial dilutions of the compounds or DMSO as a control for 72 h at 37 °C (5% CO2) and lysed for ATP measurement. ATP levels were measured using the ViaLight HS BioAssay kit (Lonza, Basel, Switzerland) in a GloMax 20/20 single-tube luminometer (Promega) for 1 s, according to the manufacturer’s protocol. Values were normalized to total protein amounts and used to determine the compound concentration causing 50% cell death (CC50). Nonlinear regression analysis was performed using Prism 5.0 software (GraphPad Software Inc., San Diego, CA, USA).
structure (smiles),measurement,value
"COC(=O)N[C@@H](C(=O)N1CCC[C@H]1c1ncc(-c2cccc(C#CC#Cc3cccc(-c4cnc([C@@H]5CCCN5C(=O)[C@H](NC(=O)OC)c5ccccc5)[nH]4)c3)c2)[nH]1)c1ccccc1 [Compound 10a, Dimethyl ((1R,1′R)-((2S,2′S)-((buta-1,3-diyne-1,4-diylbis(3,1-phenylene))bis(1H-imidazole-5,2-diyl))bis(pyrrolidine-2,1-diyl))bis(2-oxo-1-phenylethane-2,1-diyl))dicarbamate]",CC50 at 72 h,> 100 µM
